Assay results: US20240092835A1, “NOVEL PEPTIDES CAPABLE OF ALTERING NK CELL ACTIVITY” (Massachusetts Institute of Technology, priority 2022, published 2024)
Where no end group is shown, it is not given here.

Assays:
CD94/NKG2C = CD94/NKG2C (Homo sapiens, UniProt P26717+Q13241); experiment: Steady-state surface plasmon resonance of peptide-HLA-E complex with CD94/NKG2C; format: binding; settings: steady-state SPR
Procedure: Binding affinity of novel peptides linked to HLA-E was determined using surface plasmon resonance (SPR), a methodology used to study protein-protein interactions (Tables 15-19). The peptide-HLA-E complex (generated as a single chain trimer) was immobilized on the sensor chip surface and CD94/NKG2A or CD94/NKG2C were flowed over. Steady-state surface plasmon resonance experiments were performed with a Biacore T200 instrument. CD94/NKG2x in HBS-EP+ buffer was injected as analyte in a concentration range of 0.1 μM to 102.4 μM and flow rate of 10 μL/min at 25° C. Data was fit with Prism 9.4 (GraphPad Software Inc; San Diego CA) to a “one site, specific binding” model. Series S CM5 chips were coupled to neutravidin and utilized. Biotinylated pMHC was immobilized at approximately 400 RU. KD values calculated by Biacore software are reported. Rmax, fit values were calculated by Biacore software. Rmax, theoretical values were calculated using the analyte/ligand mass ratio (0.66) multiplied by the amount of ligand coupled to the chip.

NKG2A−/NKG2C+ NK cells = experiment: NKG2A-/NKG2C+ NK cell activation with peptide and RMA-S cells expressing HLA-E; format: cell-based; settings: RMA-S cells expressing HLA-E, NKG2A−/NKG2C+ NK cells
Procedure: An antigen processing-defective lymphoma cell line (RMA-S), with a low-level expression of HLA-E, were incubated with the novel peptides to determine the inhibitory strength on NKG2A−/NKG2C+NK cells relative to positive control sequences with differential effects ([…] (SEQ ID NO: 19)/VMAPRTLFL (SEQ ID NO: 18)). The effects of the peptides on NK cell inhibition were determined by measuring four markers of NK cell activation (CD107a, IFNG, TNF, CCL3) in NKG2A−/NKG2C+NK cells (FIGS. 2A-2D). Activation was indicated by an increase in percent cells positive for cell surface markers.

NKG2A+/NKG2C− NK cells = experiment: NK cell activation markers in NKG2A+/NKG2C- NK cells incubated with peptide and K562 expressing HLA-E (inhibition); format: cell-based, human; settings: for effect on NKG2A+/NKG2C− NK cell inhibition (in words): K562 expressing HLA-E, CD107a, IFNG, TNF, CCL3; for percentage of CCL3+ NK cells / percentage of CD107a+ NK cells / percentage of IFNG+ NK cells / percentage of TNF+ NK cells: NKG2A+/NKG2C- NK cells, K562/HLA-E
How it was run: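 Read-out: % NK cells positive for surface activation markers; a rise indicates activation, a fall indicates inhibition. Targets were K562 cells expressing HLA-E, loaded with human- or HCMV-proteome-derived peptides.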

CD94/NKG2C, sequence (P26717 94-231 limits assumed): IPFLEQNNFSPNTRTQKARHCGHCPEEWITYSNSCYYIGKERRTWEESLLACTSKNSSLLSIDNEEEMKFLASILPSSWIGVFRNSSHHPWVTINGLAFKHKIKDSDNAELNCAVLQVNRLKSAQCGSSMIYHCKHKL
CD94/NKG2C, sequence (Q13241 32-179 limits assumed): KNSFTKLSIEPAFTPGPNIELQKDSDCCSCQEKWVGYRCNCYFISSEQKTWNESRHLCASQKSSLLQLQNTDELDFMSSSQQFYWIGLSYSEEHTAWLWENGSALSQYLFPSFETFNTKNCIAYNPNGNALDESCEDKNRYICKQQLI

For TAPARTMFL [human13, TAPARTMFL], the “Binding of peptide-HLA-E complexes to CD94/NKG2C normalized to a theoretical Rmax” value (CD94/NKG2C; CD94/NKG2C analyte concentration 0 μM) was 0.005, the “Binding of peptide-HLA-E complexes to CD94/NKG2C normalized to a theoretical Rmax” value (CD94/NKG2C; CD94/NKG2C analyte concentration 0.1 μM) was 0.012 and the “Binding of peptide-HLA-E complexes to CD94/NKG2C normalized to a theoretical Rmax” value (CD94/NKG2C; CD94/NKG2C analyte concentration 0.2 μM) was 0.017. The “Binding of peptide-HLA-E complexes to CD94/NKG2C normalized to a theoretical Rmax” value (CD94/NKG2C; CD94/NKG2C analyte concentration 0.4 μM) was 0.030, the “Binding of peptide-HLA-E complexes to CD94/NKG2C normalized to a theoretical Rmax” value (CD94/NKG2C; CD94/NKG2C analyte concentration 0.8 μM) was 0.050 and the “Binding of peptide-HLA-E complexes to CD94/NKG2C normalized to a theoretical Rmax” value (CD94/NKG2C; CD94/NKG2C analyte concentration 1.6 μM) was 0.086. The “Binding of peptide-HLA-E complexes to CD94/NKG2C normalized to a theoretical Rmax” value (CD94/NKG2C; CD94/NKG2C analyte concentration 3.2 μM) was 0.149, the “Binding of peptide-HLA-E complexes to CD94/NKG2C normalized to a theoretical Rmax” value (CD94/NKG2C; CD94/NKG2C analyte concentration 6.4 μM) was 0.234 and the “Binding of peptide-HLA-E complexes to CD94/NKG2C normalized to a theoretical Rmax” value (CD94/NKG2C; CD94/NKG2C analyte concentration 12.8 μM) was 0.342. For the same sequence, the “Binding of peptide-HLA-E complexes to CD94/NKG2C normalized to a theoretical Rmax” value (CD94/NKG2C; CD94/NKG2C analyte concentration 25.6 μM) was 0.454, the “Binding of peptide-HLA-E complexes to CD94/NKG2C normalized to a theoretical Rmax” value (CD94/NKG2C; CD94/NKG2C analyte concentration 51.2 μM) was 0.552 and the “Binding of peptide-HLA-E complexes to CD94/NKG2C normalized to a theoretical Rmax” value (CD94/NKG2C; CD94/NKG2C analyte concentration 102.4 μM) was 0.669. For the same sequence, the “increase in CCL3+ NK cells (in words)” value (NKG2A−/NKG2C+ NK cells) was “slight increases”, the “increase in CD107a+ NK cells (in words)” value (NKG2A−/NKG2C+ NK cells) was “slight increases” and the “increase in IFNG+ NK cells (in words)” value (NKG2A−/NKG2C+ NK cells) was “no increase”. The “increase in TNF+ NK cells (in words)” value (NKG2A−/NKG2C+ NK cells) was “no increase”, the “effect on NKG2A+/NKG2C− NK cell inhibition (in words)” value (NKG2A+/NKG2C− NK cells; listed as SEQ ID NO. 5) was “no or minimal effect” and the “effect on NKG2A+/NKG2C− NK cell inhibition (in words)” value (NKG2A+/NKG2C− NK cells; listed as h13) was “no effect”. The “percentage of CCL3+ NK cells” value (NKG2A+/NKG2C− NK cells; Trial 1) was 52.5%, the “percentage of CD107a+ NK cells” value (NKG2A+/NKG2C− NK cells; Trial 1) was 31.2% and the “percentage of IFNG+ NK cells” value (NKG2A+/NKG2C− NK cells; Trial 1) was 13%. For the same sequence, the “percentage of TNF+ NK cells” value (NKG2A+/NKG2C− NK cells; Trial 1) was 3.99%, the “percentage of CCL3+ NK cells” value (NKG2A+/NKG2C− NK cells; Trial 2) was 75.9% and the “percentage of CD107a+ NK cells” value (NKG2A+/NKG2C− NK cells; Trial 2) was 50.6%. For the same sequence, the “percentage of IFNG+ NK cells” value (NKG2A+/NKG2C− NK cells; Trial 2) was 30.8%, the “percentage of TNF+ NK cells” value (NKG2A+/NKG2C− NK cells; Trial 2) was 13.8% and the “percentage of CCL3+ NK cells” value (NKG2A+/NKG2C− NK cells; Trial 3) was 52.6%. For the same sequence, the “percentage of CD107a+ NK cells” value (NKG2A+/NKG2C− NK cells; Trial 3) was 44.4%, the “percentage of IFNG+ NK cells” value (NKG2A+/NKG2C− NK cells; Trial 3) was 31.7% and the “percentage of TNF+ NK cells” value (NKG2A+/NKG2C− NK cells; Trial 3) was 17%. The “percentage of CCL3+ NK cells” value (NKG2A+/NKG2C− NK cells; Trial 4) was 47.3%, the “percentage of CD107a+ NK cells” value (NKG2A+/NKG2C− NK cells; Trial 4) was 37.6% and the “percentage of IFNG+ NK cells” value (NKG2A+/NKG2C− NK cells; Trial 4) was 21.7%. The “percentage of TNF+ NK cells” value (NKG2A+/NKG2C− NK cells; Trial 4) was 12.6%, the “percentage of CCL3+ NK cells” value (NKG2A+/NKG2C− NK cells; Trial 5) was 48.9% and the “percentage of CD107a+ NK cells” value (NKG2A+/NKG2C− NK cells; Trial 5) was 32.2%. The “percentage of IFNG+ NK cells” value (NKG2A+/NKG2C− NK cells; Trial 5) was 16.9%, the “percentage of TNF+ NK cells” value (NKG2A+/NKG2C− NK cells; Trial 5) was 7.45% and the “percentage of CCL3+ NK cells” value (NKG2A+/NKG2C− NK cells; Trial 6) was 39.3%. For the same sequence, the “percentage of CD107a+ NK cells” value (NKG2A+/NKG2C− NK cells; Trial 6) was 28.2%, the “percentage of IFNG+ NK cells” value (NKG2A+/NKG2C− NK cells; Trial 6) was 8.81% and the “percentage of TNF+ NK cells” value (NKG2A+/NKG2C− NK cells; Trial 6) was 5.68%.
